Source: PubChem BioAssay (NCI)
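In this assay, cells in 96-well plates receive the compound at five concentrations for 48 hours. Endpoints are linearly interpolated between the surrounding concentrations. TGI denotes the concentration required for complete inhibition of growth.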

Tests used:
Experiment in all cases: inhibition of tumour cell growth, NCI panel, 48 h
RPMI-8226 leukemia = tested on: RPMI-8226 leukemia
TK-10 renal = tested on: TK-10 renal
A549 NSCLC = tested on: A549 NSCLC
IGROV1 ovarian = tested on: IGROV1 ovarian
PC-3 prostate = tested on: PC-3 prostate
ACHN renal = tested on: ACHN renal
OVCAR-3 ovarian = tested on: OVCAR-3 ovarian
KM12 colon = tested on: KM12 colon
HCT-116 colon = tested on: HCT-116 colon
HS 578T breast = tested on: HS 578T breast
SF-268 CNS = tested on: SF-268 CNS
BT-549 breast = tested on: BT-549 breast
MDA-MB-231 breast = tested on: MDA-MB-231 breast
NCI-H522 lung = tested on: NCI-H522 lung
NCI-H226 lung = tested on: NCI-H226 lung

Row | Structure (SMILES) | TGI (RPMI-8226 leukemia) | TGI (TK-10 renal) | TGI (A549 NSCLC) | TGI (IGROV1 ovarian) | TGI (PC-3 prostate) | TGI (ACHN renal) | TGI (OVCAR-3 ovarian) | TGI (KM12 colon) | TGI (HCT-116 colon) | TGI (HS 578T breast) | TGI (SF-268 CNS) | TGI (BT-549 breast) | TGI (MDA-MB-231 breast) | TGI (NCI-H522 lung) | TGI (NCI-H226 lung)
1 | Cc1ccc(N2C(=O)C(=O)N(/N=C3\C(=O)Nc4ccccc43)C2=S)cc1 | > 100 µM | > 100 µM | > 100 µM | > 100 µM | > 100 µM | > 100 µM | > 100 µM | > 100 µM | > 100 µM | > 100 µM | > 100 µM | > 100 µM | > 100 µM | > 100 µM | 
2 | CC1=C(C)C(=O)C(C2=C(C3=CC(=O)C(C)=C(C)C3=O)C(=O)c3ccccc3C2=O)=CC1=O | 18 µM | 15.9 µM | 17.7 µM | 7.14 µM | 7.83 µM | 6.71 µM | 15.8 µM | 11.1 µM | 5.31 µM | 43.5 µM | 17.5 µM | 7.16 µM | 6.23 µM | 5.49 µM | 21 µM
3 | Cc1cc(C(O)CNC(C)CCn2cnc3c2c(=O)n(C)c(=O)n3C)ccc1O (stereo unspecified) | > 100 µM | > 100 µM | > 100 µM | > 100 µM | > 100 µM | > 100 µM | > 100 µM | > 100 µM | > 100 µM | > 100 µM | > 100 µM | > 100 µM | > 100 µM | > 100 µM | > 100 µM
4 | COC(=O)CCC1(O)C=CC(=O)C=C1 | > 100 µM | > 100 µM | > 100 µM | > 100 µM | > 100 µM | > 100 µM | 59.5 µM | > 100 µM | > 100 µM | > 100 µM | > 100 µM | > 100 µM | > 100 µM | 28.8 µM | > 100 µM
5 | CCSC12CC3c4cccc5c4C(CN5C(=O)c4ccccc4)CC3(O1)N(C)C2=O (stereo unspecified) |  | > 100 µM | > 100 µM | > 100 µM | 81.2 µM | > 100 µM | > 100 µM | > 100 µM | > 100 µM | > 100 µM | > 100 µM | 80.7 µM | > 100 µM | 64.7 µM | > 100 µM
6 | CC(=O)C1C(=O)C(=O)N(c2ccc(Br)cc2)C1=O (stereo unspecified) |  | > 100 µM | > 100 µM | > 100 µM | > 100 µM | > 100 µM | > 100 µM | > 100 µM | > 100 µM | > 100 µM | > 100 µM | > 100 µM | > 100 µM | > 100 µM | > 100 µM
7 | O=c1c(Sc2ncccn2)c(Sc2ncccn2)cnn1CCl | > 20.6 µM | 11.4 µM | 35.5 µM | 4.76 µM | 8.79 µM | 5.45 µM | 10.8 µM | 29.1 µM | 3.89 µM | 37 µM | 9.57 µM | 31 µM | 19 µM | 2.37 µM | > 76.8 µM
8 | c1cc(C[S+]2CCCC2)oc1C[S+]1CCCC1 |  | > 100 µM | > 100 µM | > 100 µM | > 100 µM | > 100 µM | > 100 µM |  | > 100 µM | > 100 µM | > 100 µM | > 100 µM | > 100 µM | > 100 µM | 
9 | COC(=O)[C@@H]1[C@H](O)CC[C@H]2[C@@]1(C)CC[C@@H](C)[C@]2(COC(C)=O)CC(=O)c1ccoc1 | > 50 µM | > 50 µM | > 50 µM | > 50 µM | > 50 µM | > 50 µM | > 50 µM | > 50 µM | > 50 µM | > 50 µM | > 50 µM | > 50 µM | > 50 µM | > 50 µM | > 50 µM
10 | Cc1ccc(-n2cc(-c3ccc(Cl)cc3)c3c2N=CN2NC(c4cccs4)=NC32)cc1 (stereo unspecified) |  | 27.9 µM | > 100 µM | 34.7 µM | > 100 µM | 19.2 µM | 35 µM |  | 22 µM | 6.52 µM | 69.5 µM | 53.7 µM | 21.5 µM | > 100 µM | 80.7 µM
11 | CCOP(=O)(OCC)C(=C1C=C(C(C)(C)C)C(=O)C(C(C)(C)C)=C1)P(=O)(OCC)OCC | > 10 µM | > 7.39 µM | > 10 µM | > 10 µM | > 10 µM | > 3.16 µM | > 5.55 µM | > 10 µM | 5.67 µM | > 10 µM | > 10 µM | 5.16 µM | > 10 µM | 4.29 µM | > 10 µM
12 | Cc1cn2c(/C=C3/C(=O)Nc4ccccc43)c(C)nc2s1 | 21 µM | > 100 µM | 50.7 µM | > 100 µM | 6.99 µM | > 100 µM |  | 29.7 µM | 15.5 µM | 7 µM | 78.1 µM | > 100 µM | 43.4 µM | 21.5 µM | 
13 | CC(=O)Oc1cc(S(=O)(=O)Nc2n[nH]c(N)n2)c(S)cc1Cl | > 100 µM | > 100 µM | > 100 µM | > 100 µM | > 100 µM | > 100 µM | > 100 µM | > 100 µM | > 100 µM | > 100 µM |  | > 100 µM | > 100 µM | > 100 µM | 
14 | COC(=O)C1=NN2c3ccccc3CN([C@@H](C)c3ccccc3)C(=O)[C@H]2[C@@H]1C |  | > 100 µM | > 100 µM |  | > 100 µM | > 100 µM | > 100 µM | > 100 µM | > 100 µM | > 100 µM | > 100 µM | 95.3 µM | > 100 µM | > 100 µM | > 100 µM
15 | C=CC[C@H]1[C@H](O[Si](C)(C)C(C)(C)C)C=CC(=O)[C@@H]1CC(=O)OCC | 12.2 µM | 28 µM | 23.9 µM | 32.8 µM | 21.3 µM | 27.2 µM | 26.4 µM | 27.2 µM | 23.5 µM | 43.4 µM | 28.9 µM | 30.3 µM | 27.6 µM | 26.1 µM | 29.2 µM
16 | Oc1ccc(Cn2c(-c3ccc(O)cc3)nc3ccccc32)cc1 | > 100 µM | > 100 µM | > 100 µM | > 100 µM | > 100 µM | > 100 µM | > 100 µM | > 100 µM | > 100 µM | > 100 µM | > 100 µM | > 100 µM | > 100 µM | > 100 µM | > 100 µM
